Literature values as cited in US20250325518A1, “USE OF A COMBINATION OF SACUBITRIL AND VALSARTAN” (Novartis AG, priority 2016, published 2025).

Legend:
[1] = test system: patients 8 months to 14 years with HF due to congenital heart disease or cardiomyopathy; conditions: pediatric HF patients 8 months to 14 years; placebo-controlled
[2] = test system: adult patients with HF with reduced ejection fraction (HFrEF); conditions: LCZ696 vs enalapril

**Q.** With `COc1ccccc1OCCNCC(O)COc1cccc2[nH]c3ccccc3c12` (stereo not shown) [carvedilol] as the compound, how does the “composite measure of HF outcomes (worsening, improved or unchanged), primary endpoint” value [1] read?
**A.** Its value is “did not meet its composite primary endpoint”.

**Q.** Which “relative risk reduction (RRR), time to first occurrence of composite endpoint of CV death or HF hospitalization” value ([2]; N=8442, p=0.0000002) does the source give for “trisodium [3-((1S,3R)-1-biphenyl-4-ylmethyl-3-ethoxycarbonyl-1-butylcarbamoyl)propionate-(S)-3′-methyl-2′-(pentanoyl{2″-(tetrazol-5-ylate)biphenyl-4′-ylmethyl}amino)butyrate] hemipentahydrate [LCZ696]” here?
**A.** Its value is 20%.

**Q.** What about the “relative risk reduction (RRR), time to CV death” value ([2]; p=0.00004) of the same compound?
**A.** Its value is 20%.

**Q.** And the “relative risk reduction (RRR), time to first HF hospitalization” value ([2]; p=0.00004)?
**A.** Its value is 21%.
